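Results reflect a 48-hour exposure of cells in 96-well plates to compound at five concentrations. The concentration for 50% growth inhibition is given as GI50. TGI is the concentration that stops growth completely.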
Experiments:
Experiment in all cases: NCI-60 cell line screen, 48 h
A498 renal = test system: A498 renal
SF-539 CNS = test system: SF-539 CNS
HOP-62 NSCLC = test system: HOP-62 NSCLC
UACC-62 melanoma = test system: UACC-62 melanoma
SNB-75 CNS = test system: SNB-75 CNS
UO-31 renal = test system: UO-31 renal
PC-3 prostate = test system: PC-3 prostate
MDA-MB-435 = test system: MDA-MB-435
KM12 colon = test system: KM12 colon
CAKI-1 renal = test system: CAKI-1 renal
SK-MEL-5 melanoma = test system: SK-MEL-5 melanoma
HOP-92 NSCLC = test system: HOP-92 NSCLC
NCI-H23 lung = test system: NCI-H23 lung
ACHN renal = test system: ACHN renal
SK-MEL-28 melanoma = test system: SK-MEL-28 melanoma
786-0 renal = test system: 786-0 renal
OVCAR-4 ovarian = test system: OVCAR-4 ovarian
EKVX NSCLC = test system: EKVX NSCLC
OVCAR-5 ovarian = test system: OVCAR-5 ovarian
SF-268 CNS = test system: SF-268 CNS
OVCAR-3 ovarian = test system: OVCAR-3 ovarian
TK-10 renal = test system: TK-10 renal
RXF 393 renal = test system: RXF 393 renal
SK-OV-3 ovarian = test system: SK-OV-3 ovarian
DU-145 prostate = test system: DU-145 prostate
BT-549 breast = test system: BT-549 breast
HS 578T breast = test system: HS 578T breast
MALME-3M melanoma = test system: MALME-3M melanoma
MDA-MB-231 breast = test system: MDA-MB-231 breast
SK-MEL-2 melanoma = test system: SK-MEL-2 melanoma
T-47D breast = test system: T-47D breast
LOX IMVI melanoma = test system: LOX IMVI melanoma
HCT-15 colon = test system: HCT-15 colon
M14 melanoma = test system: M14 melanoma
CCRF-CEM leukemia = test system: CCRF-CEM leukemia
K-562 leukemia = test system: K-562 leukemia
U251 CNS = test system: U251 CNS
OVCAR-8 ovarian = test system: OVCAR-8 ovarian
SNB-19 CNS = test system: SNB-19 CNS
MCF7 breast = test system: MCF7 breast
MOLT-4 leukemia = test system: MOLT-4 leukemia
NCI-H226 lung = test system: NCI-H226 lung
NCI/ADR-RES ovarian = test system: NCI/ADR-RES ovarian
NCI-H460 lung = test system: NCI-H460 lung
HL-60(TB) leukemia = test system: HL-60(TB) leukemia
RPMI-8226 leukemia = test system: RPMI-8226 leukemia
COLO 205 colon = test system: COLO 205 colon
HT29 colon = test system: HT29 colon
HCC-2998 colon = test system: HCC-2998 colon
SF-295 CNS = test system: SF-295 CNS
SN12C renal = test system: SN12C renal
SW-620 colon = test system: SW-620 colon
HCT-116 colon = test system: HCT-116 colon
IGROV1 ovarian = test system: IGROV1 ovarian
NCI-H522 lung = test system: NCI-H522 lung
UACC-257 melanoma = test system: UACC-257 melanoma
A549 NSCLC = test system: A549 NSCLC

## CC[C@]12C=CCN3CC[C@@]4(c5cc(NC(=O)COc6cc(O)c7c(=O)cc(-c8ccccc8)oc7c6)c(OC)cc5N(C)[C@H]4[C@@](O)(C(=O)OC)[C@@H]1OC(C)=O)[C@@H]32
A498 renal
  GI50: 1480 nM
  TGI: 3.1 µM
SF-539 CNS
  GI50: 1670 nM
  TGI: 3200 nM
HOP-62 NSCLC
  GI50: 1880 nM
  TGI: 3.94 µM
UACC-62 melanoma
  GI50: 1850 nM
  TGI: 3.69 µM
SNB-75 CNS
  GI50: 1340 nM
  TGI: 3.97 µM
UO-31 renal
  GI50: 1680 nM
  TGI: 3080 nM
PC-3 prostate
  GI50: 1310 nM
  TGI: 2.78 µM
MDA-MB-435
  GI50: 1560 nM
  TGI: 3.02 µM
KM12 colon
  GI50: 2070 nM
  TGI: 5.14 µM
CAKI-1 renal
  GI50: 1810 nM
  TGI: 4.29 µM
SK-MEL-5 melanoma
  GI50: 1810 nM
  TGI: 3.34 µM
HOP-92 NSCLC
  GI50: 1360 nM
  TGI: 2.98 µM
NCI-H23 lung
  GI50: 1850 nM
  TGI: 3.45 µM
ACHN renal
  GI50: 1670 nM
  TGI: 3200 nM
SK-MEL-28 melanoma
  GI50: 1750 nM
  TGI: 3.2 µM
786-0 renal
  GI50: 1790 nM
  TGI: 3530 nM
OVCAR-4 ovarian
  GI50: 1880 nM
  TGI: 3.42 µM
EKVX NSCLC
  GI50: 2 µM
  TGI: 4.6 µM
OVCAR-5 ovarian
  GI50: 1720 nM
  TGI: 3.2 µM
SF-268 CNS
  GI50: 1980 nM
  TGI: 4.51 µM
OVCAR-3 ovarian
  GI50: 2810 nM
  TGI: 7.17 µM
TK-10 renal
  GI50: 2150 nM
  TGI: 4.84 µM
RXF 393 renal
  GI50: 1740 nM
  TGI: 3200 nM
SK-OV-3 ovarian
  GI50: 2.15 µM
  TGI: 4.79 µM
DU-145 prostate
  GI50: 2400 nM
  TGI: 5.57 µM
BT-549 breast
  GI50: 1640 nM
  TGI: 3180 nM
HS 578T breast
  GI50: 1990 nM
  TGI: 4.79 µM
MALME-3M melanoma
  GI50: 1580 nM
  TGI: 2.97 µM

## C#CCOc1ccc(-c2csc(NC(=O)C=C)n2)cc1NS(=O)(=O)c1cccc2c(N(C)C)cccc12
MDA-MB-231 breast
  GI50: 1790 nM
  TGI: 9.42 µM
SK-MEL-2 melanoma
  GI50: 973 nM
  TGI: 2190 nM
A498 renal
  GI50: 1710 nM
  TGI: 6.83 µM
SF-539 CNS
  GI50: 861 nM
  TGI: 1780 nM
HOP-62 NSCLC
  GI50: 1640 nM
  TGI: 8.04 µM
UACC-62 melanoma
  GI50: 1180 nM
  TGI: 6.05 µM
T-47D breast
  GI50: 1490 nM
  TGI: 6.95 µM
LOX IMVI melanoma
  GI50: 25.2 nM
  TGI: 668 nM
HCT-15 colon
  GI50: 900 nM
  TGI: 2160 nM
M14 melanoma
  GI50: 1020 nM
  TGI: 2580 nM
CCRF-CEM leukemia
  GI50: 312 nM
  TGI: 2650 nM
SNB-75 CNS
  GI50: 862 nM
  TGI: 4.6 µM
UO-31 renal
  GI50: 727 nM
  TGI: 1430 nM
PC-3 prostate
  GI50: 1900 nM
  TGI: 8.55 µM
K-562 leukemia
  GI50: 1200 nM
  TGI: 3.8 µM
MDA-MB-435
  GI50: 1310 nM
  TGI: 3.84 µM
U251 CNS
  GI50: 2400 nM
  TGI: 8.39 µM
OVCAR-8 ovarian
  GI50: 930 nM
  TGI: 2020 nM
SNB-19 CNS
  GI50: 2250 nM
  TGI: 12.1 µM
KM12 colon
  GI50: 2210 nM
  TGI: 8.27 µM
MCF7 breast
  GI50: 1090 nM
  TGI: 5.1 µM
CAKI-1 renal
  GI50: 1380 nM
  TGI: 5.81 µM
SK-MEL-5 melanoma
  GI50: 1680 nM
  TGI: 6.28 µM
MOLT-4 leukemia
  GI50: 1180 nM
  TGI: 3.83 µM
HOP-92 NSCLC
  GI50: 819 nM
  TGI: 3.61 µM
NCI-H226 lung
  GI50: 1170 nM
  TGI: 3.51 µM
NCI/ADR-RES ovarian
  GI50: 1450 nM
  TGI: 50 µM
NCI-H23 lung
  GI50: 1790 nM
  TGI: 7.67 µM
NCI-H460 lung
  GI50: 2110 nM
  TGI: 8.52 µM
HL-60(TB) leukemia
  GI50: 683 nM
  TGI: 2120 nM
RPMI-8226 leukemia
  GI50: 947 nM
  TGI: 2570 nM
ACHN renal
  GI50: 861 nM
  TGI: 1740 nM
COLO 205 colon
  GI50: 2190 nM
  TGI: 7.97 µM
SK-MEL-28 melanoma
  GI50: 1250 nM
  TGI: 3.61 µM
HT29 colon
  GI50: 838 nM
  TGI: 1670 nM
HCC-2998 colon
  GI50: 3 µM
  TGI: 9.58 µM
SF-295 CNS
  GI50: 3.81 µM
  TGI: 11.5 µM
786-0 renal
  GI50: 909 nM
  TGI: 1940 nM
OVCAR-4 ovarian
  GI50: 3000 nM
  TGI: 22.6 µM
EKVX NSCLC
  GI50: 7.92 µM
  TGI: 22.6 µM
OVCAR-5 ovarian
  GI50: 1470 nM
  TGI: 6.18 µM
SF-268 CNS
  GI50: 2460 nM
  TGI: 11 µM
SN12C renal
  GI50: 1300 nM
  TGI: 5.02 µM
SW-620 colon
  GI50: 848 nM
  TGI: 1750 nM
TK-10 renal
  GI50: 934 nM
  TGI: 2.04 µM
RXF 393 renal
  GI50: 1120 nM
  TGI: 2070 nM
HCT-116 colon
  GI50: 800 nM
  TGI: 1570 nM
IGROV1 ovarian
  GI50: 1090 nM
  TGI: 2700 nM
NCI-H522 lung
  GI50: 806 nM
  TGI: 1630 nM
UACC-257 melanoma
  GI50: 2460 nM
  TGI: 10 µM
SK-OV-3 ovarian
  GI50: 7.07 µM
  TGI: 15.7 µM
DU-145 prostate
  GI50: 1540 nM
  TGI: 5.25 µM
A549 NSCLC
  GI50: 2970 nM
  TGI: 13.2 µM
BT-549 breast
  GI50: 810 nM
  TGI: 1520 nM
HS 578T breast
  GI50: 1680 nM
  TGI: 22.3 µM
MALME-3M melanoma
  GI50: 1070 nM
  TGI: 3.46 µM
